Source: paper PMC9186362, “Design and biological evaluation of substituted 5,7-dihydro-6H-indolo[2,3-c]quinolin-6-one as novel selective Haspin inhibitors” (Journal of Enzyme Inhibition and Medicinal Chemistry, 2022)

Tests used:
[1] = system: endogenous Haspin (H3T3ph) in U-2 OS cells; assay: Endogenous Haspin activity, H3T3ph immunofluorescence; format: cell-based, human; conditions: 0.5 µM, 16 h, early mitotic U-2 OS cells
Method: U-2 OS cells were grown on glass coverslips, treated for 16 h than fixed with 4% paraformaldehyde in PBS, permeabilized by 0.15% Triton-X100 for 2 min, blocked for 15 min in 4% BSA in PBS and processed using standard immunofluorescence protocols. Primary antibodies included anti-phospho-Thr3 Histone H3 (1/1000 dilution, Millipore) and anti-α-tubulin (1/5000 dilution, clone B512, Sigma). Images were acquired with a Coolsnap HQ2 CCD camera (Photometrics) on a Zeiss Axio microscope (Carl Zeiss) using a 63x NA 1.40 objective. Image acquisition and processing were performed using Metamorph (Molecular Device). Quantification of signal intensity was performed using ImageJ software (NIH).

[2] = target: T1, AMPK (A1/B2/G1) (Homo sapiens, UniProt Q13131); assay: LanthaScreen Binding - Eu-anti-His; conditions: read-out: Percentage of inhibition
T1 construct: purchased Life Technologies (SelectScreen service)
Method: (§1) We further evaluated the selectivity profile of compound 55 on a larger panel of kinases (SelectScreen Whole Panel, Life Technologies). The inhibition profile of 55, evaluated at 1 μM, is depicted on a dendrogram on Figure 3 where kinases inhibited by a minimum of 80% are shown. A full list of the kinases tested is shown on Table S1 in supplementary information.

[3] = target: T2, STK39 (STLK3) (Homo sapiens, UniProt Q9UEW8); assay: LanthaScreen Binding - Eu-anti-His; conditions: read-out: Percentage of inhibition
T2 construct: purchased Life Technologies (SelectScreen service)
Method: as §1

[4] = target: T3, MAP3K7/MAP3K7IP1 (TAK1-TAB1) (Homo sapiens, UniProt O43318); assay: LanthaScreen Binding - Eu-anti-His; conditions: read-out: Percentage of inhibition
T3 construct: purchased Life Technologies (SelectScreen Whole Panel)
Method: as §1

[5] = target: EPHA3 (Homo sapiens, UniProt P29320); assay: LanthaScreen Binding - Eu-anti-His; conditions: read-out: Percentage of inhibition
Method: as §1

[6] = target: T4, LIMK1 (Homo sapiens, UniProt P53667); assay: LanthaScreen Binding - Eu-anti-His; conditions: read-out: Percentage of inhibition
T4 construct: purchased Life Technologies (SelectScreen service)
Method: as §1

[7] = target: T5, MAP2K1 (MEK1) (Homo sapiens, UniProt Q02750); assay: LanthaScreen Binding - Eu-anti-His; conditions: read-out: Percentage of inhibition
T5 construct: purchased Life Technologies (SelectScreen Whole Panel)
Method: as §1

[8] = target: T6, AMPK (A1/B1/G3) (Homo sapiens, UniProt Q13131); assay: LanthaScreen Binding - Eu-anti-His; conditions: read-out: Percentage of inhibition
T6 construct: purchased Life Technologies (SelectScreen service)
Method: as §1

[9] = target: T7, MAPK9 (JNK2) (Homo sapiens, UniProt P45984); assay: LanthaScreen Binding - Eu-anti-His; conditions: read-out: Percentage of inhibition
T7 construct: purchased Life Technologies (SelectScreen service)
Method: as §1

[10] = target: T8, MAP2K6 (MKK6) S207E T211E (Homo sapiens, UniProt P52564, S207E/T211E); assay: LanthaScreen Binding - Eu-anti-His; conditions: read-out: Percentage of inhibition
T8 construct: purchased Life Technologies (SelectScreen Whole Panel service)
T8 sequence (P52564 whole entry S207E/T211E): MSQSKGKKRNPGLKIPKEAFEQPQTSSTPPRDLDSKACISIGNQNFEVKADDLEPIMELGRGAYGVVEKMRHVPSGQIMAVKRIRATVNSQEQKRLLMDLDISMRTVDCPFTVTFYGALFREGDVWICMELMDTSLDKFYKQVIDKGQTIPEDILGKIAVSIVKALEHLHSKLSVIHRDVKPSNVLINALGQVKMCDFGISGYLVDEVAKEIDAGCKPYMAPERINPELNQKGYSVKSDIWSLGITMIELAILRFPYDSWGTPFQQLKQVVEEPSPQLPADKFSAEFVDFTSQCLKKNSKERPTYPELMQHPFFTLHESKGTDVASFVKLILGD
Method: as §1

[11] = target: T9, CLK4 (Homo sapiens, UniProt Q9HAZ1); assay: LanthaScreen Binding - Eu-anti-His; conditions: read-out: Percentage of inhibition
T9 construct: purchased Life Technologies (SelectScreen Whole Panel)
T9 sequence (Q9HAZ1 whole entry): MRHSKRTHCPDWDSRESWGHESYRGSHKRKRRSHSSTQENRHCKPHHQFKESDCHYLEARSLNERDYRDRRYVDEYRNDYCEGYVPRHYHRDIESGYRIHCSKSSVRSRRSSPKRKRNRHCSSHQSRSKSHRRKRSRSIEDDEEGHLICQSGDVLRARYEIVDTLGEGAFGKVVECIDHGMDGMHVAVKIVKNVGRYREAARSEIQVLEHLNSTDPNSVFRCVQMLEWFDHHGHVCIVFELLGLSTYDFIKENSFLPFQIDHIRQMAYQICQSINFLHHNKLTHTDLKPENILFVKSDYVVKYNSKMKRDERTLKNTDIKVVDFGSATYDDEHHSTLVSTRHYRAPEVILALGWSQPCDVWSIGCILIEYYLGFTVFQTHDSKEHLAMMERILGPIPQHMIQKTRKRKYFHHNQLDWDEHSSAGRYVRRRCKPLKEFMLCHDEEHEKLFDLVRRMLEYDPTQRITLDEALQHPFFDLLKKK
Method: as §1

[12] = target: T10, MAP2K1 (MEK1) S218D S222D (Homo sapiens, UniProt Q02750, S218D/S222D); assay: LanthaScreen Binding - Eu-anti-His; conditions: read-out: Percentage of inhibition
T10 construct: purchased Life Technologies (SelectScreen Whole Panel)
Method: as §1

[13] = target: CDK9/cyclin K (Homo sapiens, UniProt P50750); assay: LanthaScreen Binding - Eu-anti-His; conditions: read-out: Percentage of inhibition
Method: as §1

[14] = target: T11, CAMKK1 (CAMKKA) (Homo sapiens, UniProt Q8N5S9); assay: LanthaScreen Binding - Eu-anti-His; conditions: read-out: Percentage of inhibition
T11 construct: purchased Life Technologies (SelectScreen)
T11 sequence (Q8N5S9 whole entry): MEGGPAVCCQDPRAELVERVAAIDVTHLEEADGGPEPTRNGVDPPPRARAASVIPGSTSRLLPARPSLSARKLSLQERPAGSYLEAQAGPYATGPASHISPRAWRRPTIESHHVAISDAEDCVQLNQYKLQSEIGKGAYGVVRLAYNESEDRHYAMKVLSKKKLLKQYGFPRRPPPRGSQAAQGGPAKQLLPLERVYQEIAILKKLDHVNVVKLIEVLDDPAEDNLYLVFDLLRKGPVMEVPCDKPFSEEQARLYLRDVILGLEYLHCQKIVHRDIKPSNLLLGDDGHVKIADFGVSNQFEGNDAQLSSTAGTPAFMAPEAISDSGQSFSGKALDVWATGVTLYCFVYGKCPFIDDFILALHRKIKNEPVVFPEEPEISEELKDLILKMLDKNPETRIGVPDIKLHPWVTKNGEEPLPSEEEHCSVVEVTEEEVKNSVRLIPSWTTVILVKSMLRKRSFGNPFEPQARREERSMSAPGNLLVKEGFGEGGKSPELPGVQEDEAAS
Method: as §1

[15] = target: T12, CDK8/cyclin C (Homo sapiens, UniProt P49336); assay: LanthaScreen Binding - Eu-anti-His; conditions: read-out: Percentage of inhibition
T12 construct: purchased Life Technologies
Method: as §1

[16] = target: T13, MAP2K2 (MEK2) (Homo sapiens, UniProt P36507); assay: LanthaScreen Binding - Eu-anti-His; conditions: read-out: Percentage of inhibition
T13 construct: purchased Life Technologies
Method: as §1

[17] = target: T14, TEC (Homo sapiens, UniProt P42680); assay: LanthaScreen Binding - Eu-anti-His; conditions: read-out: Percentage of inhibition
T14 construct: purchased Life Technologies
Method: as §1

[18] = target: T15, AMPK (A2/B2/G1) (Homo sapiens, UniProt P54646); assay: LanthaScreen Binding - Eu-anti-His; conditions: read-out: Percentage of inhibition
T15 construct: purchased Life Technologies (SelectScreen service)
Method: as §1

[19] = target: T16, WNK3 (Homo sapiens, UniProt Q9BYP7); assay: LanthaScreen Binding - Eu-anti-His; conditions: read-out: Percentage of inhibition
T16 construct: purchased Life Technologies (SelectScreen Whole Panel)
Method: as §1

[20] = target: T17, ULK3 (Homo sapiens, UniProt Q6PHR2); assay: LanthaScreen Binding - Eu-anti-His; conditions: read-out: Percentage of inhibition
T17 construct: purchased Life Technologies (SelectScreen Whole Panel service)
Method: as §1

[21] = target: T18, DAPK2 (Homo sapiens, UniProt Q9UIK4); assay: LanthaScreen Binding - Eu-anti-His; conditions: read-out: Percentage of inhibition
T18 construct: purchased Life Technologies (SelectScreen service)
Method: as §1

[22] = target: WNK1 (Homo sapiens, UniProt Q9H4A3); assay: LanthaScreen Binding - Eu-anti-His; conditions: read-out: Percentage of inhibition
Chain of WNK1 (Q9H4A3 whole entry): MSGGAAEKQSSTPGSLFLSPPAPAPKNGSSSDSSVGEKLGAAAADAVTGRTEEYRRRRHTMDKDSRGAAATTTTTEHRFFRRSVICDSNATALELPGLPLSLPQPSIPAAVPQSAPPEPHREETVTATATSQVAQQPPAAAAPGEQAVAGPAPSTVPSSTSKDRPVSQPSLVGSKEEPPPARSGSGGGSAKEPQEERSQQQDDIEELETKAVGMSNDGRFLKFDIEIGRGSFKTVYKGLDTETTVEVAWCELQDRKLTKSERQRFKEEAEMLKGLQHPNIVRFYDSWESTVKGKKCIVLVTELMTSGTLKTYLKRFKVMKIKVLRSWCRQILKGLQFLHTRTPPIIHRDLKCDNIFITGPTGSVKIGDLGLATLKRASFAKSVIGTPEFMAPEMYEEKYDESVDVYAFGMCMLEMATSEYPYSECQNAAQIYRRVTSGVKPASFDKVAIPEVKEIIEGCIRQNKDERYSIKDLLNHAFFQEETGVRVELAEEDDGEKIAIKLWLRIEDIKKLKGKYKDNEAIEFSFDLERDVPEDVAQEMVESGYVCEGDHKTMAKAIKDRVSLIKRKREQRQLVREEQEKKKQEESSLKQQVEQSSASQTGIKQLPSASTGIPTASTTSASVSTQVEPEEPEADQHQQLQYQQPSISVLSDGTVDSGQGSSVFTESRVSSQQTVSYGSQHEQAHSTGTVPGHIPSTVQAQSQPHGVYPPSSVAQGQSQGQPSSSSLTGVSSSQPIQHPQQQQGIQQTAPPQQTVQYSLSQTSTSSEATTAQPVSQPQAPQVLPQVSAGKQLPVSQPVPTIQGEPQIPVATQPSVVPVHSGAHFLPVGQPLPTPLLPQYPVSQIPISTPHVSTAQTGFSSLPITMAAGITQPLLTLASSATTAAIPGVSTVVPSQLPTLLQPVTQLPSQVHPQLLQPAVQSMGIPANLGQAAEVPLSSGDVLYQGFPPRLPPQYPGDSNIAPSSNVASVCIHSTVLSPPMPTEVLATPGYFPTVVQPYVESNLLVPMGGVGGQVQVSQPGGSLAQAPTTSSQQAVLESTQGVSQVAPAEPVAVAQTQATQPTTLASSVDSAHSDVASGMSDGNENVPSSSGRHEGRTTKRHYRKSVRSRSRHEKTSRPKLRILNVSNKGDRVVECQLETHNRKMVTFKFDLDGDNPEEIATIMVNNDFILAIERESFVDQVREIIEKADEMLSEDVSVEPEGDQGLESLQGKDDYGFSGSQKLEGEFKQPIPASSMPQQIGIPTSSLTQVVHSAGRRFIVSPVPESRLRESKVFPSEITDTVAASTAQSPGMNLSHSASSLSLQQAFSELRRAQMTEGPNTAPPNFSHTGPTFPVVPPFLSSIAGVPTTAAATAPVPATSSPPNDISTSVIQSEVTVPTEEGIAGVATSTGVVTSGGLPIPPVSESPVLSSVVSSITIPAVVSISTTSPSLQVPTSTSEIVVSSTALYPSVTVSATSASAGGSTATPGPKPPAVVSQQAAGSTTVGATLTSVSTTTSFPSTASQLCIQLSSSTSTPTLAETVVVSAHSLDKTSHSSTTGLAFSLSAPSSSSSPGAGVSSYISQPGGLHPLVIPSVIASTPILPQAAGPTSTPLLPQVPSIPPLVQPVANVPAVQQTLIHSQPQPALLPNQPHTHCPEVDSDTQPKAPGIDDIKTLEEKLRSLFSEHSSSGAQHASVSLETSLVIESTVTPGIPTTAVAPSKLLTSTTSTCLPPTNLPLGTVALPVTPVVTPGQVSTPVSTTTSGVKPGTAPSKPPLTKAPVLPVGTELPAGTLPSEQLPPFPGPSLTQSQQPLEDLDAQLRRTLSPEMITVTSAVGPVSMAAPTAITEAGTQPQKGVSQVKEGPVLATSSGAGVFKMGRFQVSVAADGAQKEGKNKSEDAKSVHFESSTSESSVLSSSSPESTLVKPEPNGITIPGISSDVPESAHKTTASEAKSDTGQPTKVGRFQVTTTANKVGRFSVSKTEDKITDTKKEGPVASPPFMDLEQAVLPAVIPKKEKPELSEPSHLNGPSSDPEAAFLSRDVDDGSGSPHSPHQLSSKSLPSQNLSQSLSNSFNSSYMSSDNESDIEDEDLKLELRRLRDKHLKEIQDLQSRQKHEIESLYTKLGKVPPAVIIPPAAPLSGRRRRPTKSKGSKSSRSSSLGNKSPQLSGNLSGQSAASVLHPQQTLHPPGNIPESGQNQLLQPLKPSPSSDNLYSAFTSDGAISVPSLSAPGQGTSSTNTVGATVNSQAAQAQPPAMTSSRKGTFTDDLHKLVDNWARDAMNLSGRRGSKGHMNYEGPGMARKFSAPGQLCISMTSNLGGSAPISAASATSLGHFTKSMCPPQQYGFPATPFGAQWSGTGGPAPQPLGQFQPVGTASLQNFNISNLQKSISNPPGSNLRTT
Method: as §1

[23] = target: T19, AMPK (A1/B1/G2) (Homo sapiens, UniProt Q13131); assay: LanthaScreen Binding - Eu-anti-His; conditions: read-out: Percentage of inhibition
T19 construct: purchased Life Technologies (SelectScreen service)
Method: as §1

[24] = target: T20, AMPK (A2/B2/G2) (Homo sapiens, UniProt P54646); assay: LanthaScreen Binding - Eu-anti-His; conditions: read-out: Percentage of inhibition
T20 construct: purchased Life Technologies (SelectScreen service)
Method: as §1

[25] = target: T21, KIT V654A (Homo sapiens, UniProt P10721, V654A); assay: LanthaScreen Binding - Eu-anti-His; conditions: read-out: Percentage of inhibition
T21 construct: purchased Life Technologies (SelectScreen service)
Method: as §1

[26] = target: MAPK15 (ERK7) (Homo sapiens, UniProt Q8TD08); assay: LanthaScreen Binding - Eu-anti-His; conditions: read-out: Percentage of inhibition
Method: as §1

[27] = target: T22, BMPR2 (Homo sapiens, UniProt Q13873); assay: LanthaScreen Binding - Eu-anti-His; conditions: read-out: Percentage of inhibition
T22 construct: purchased Life Technologies (SelectScreen Whole Panel)
T22 sequence (Q13873 27-1038): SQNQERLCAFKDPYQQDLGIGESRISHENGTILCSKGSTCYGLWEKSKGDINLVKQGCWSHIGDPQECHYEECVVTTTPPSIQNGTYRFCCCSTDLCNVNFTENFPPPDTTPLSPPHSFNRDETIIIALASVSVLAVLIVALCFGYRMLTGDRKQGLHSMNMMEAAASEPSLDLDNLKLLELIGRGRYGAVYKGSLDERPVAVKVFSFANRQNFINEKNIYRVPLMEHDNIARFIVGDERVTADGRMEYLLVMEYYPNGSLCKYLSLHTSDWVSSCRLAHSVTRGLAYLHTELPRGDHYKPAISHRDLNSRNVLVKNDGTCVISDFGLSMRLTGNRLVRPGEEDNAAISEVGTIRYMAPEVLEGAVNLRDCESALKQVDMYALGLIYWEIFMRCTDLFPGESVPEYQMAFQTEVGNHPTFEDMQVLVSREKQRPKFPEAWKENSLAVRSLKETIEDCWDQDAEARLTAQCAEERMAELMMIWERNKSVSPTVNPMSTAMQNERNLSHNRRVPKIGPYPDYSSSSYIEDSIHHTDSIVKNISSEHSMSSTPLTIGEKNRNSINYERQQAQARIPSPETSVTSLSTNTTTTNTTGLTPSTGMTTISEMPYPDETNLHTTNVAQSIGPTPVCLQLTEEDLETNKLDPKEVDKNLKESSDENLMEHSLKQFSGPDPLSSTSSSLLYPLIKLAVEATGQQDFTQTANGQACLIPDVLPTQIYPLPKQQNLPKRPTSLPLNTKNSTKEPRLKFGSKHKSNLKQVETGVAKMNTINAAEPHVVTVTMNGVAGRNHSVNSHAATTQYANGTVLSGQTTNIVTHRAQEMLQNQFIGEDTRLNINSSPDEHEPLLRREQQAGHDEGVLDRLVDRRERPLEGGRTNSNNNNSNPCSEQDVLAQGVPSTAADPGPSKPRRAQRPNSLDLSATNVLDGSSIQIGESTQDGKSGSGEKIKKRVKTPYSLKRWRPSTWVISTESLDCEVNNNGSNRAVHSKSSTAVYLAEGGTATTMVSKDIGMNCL
Method: as §1

[28] = target: T23, STK16 (PKL12) (Homo sapiens, UniProt O75716); assay: LanthaScreen Binding - Eu-anti-His; conditions: read-out: Percentage of inhibition
T23 construct: purchased Life Technologies (SelectScreen Whole Panel)
T23 sequence (O75716 whole entry): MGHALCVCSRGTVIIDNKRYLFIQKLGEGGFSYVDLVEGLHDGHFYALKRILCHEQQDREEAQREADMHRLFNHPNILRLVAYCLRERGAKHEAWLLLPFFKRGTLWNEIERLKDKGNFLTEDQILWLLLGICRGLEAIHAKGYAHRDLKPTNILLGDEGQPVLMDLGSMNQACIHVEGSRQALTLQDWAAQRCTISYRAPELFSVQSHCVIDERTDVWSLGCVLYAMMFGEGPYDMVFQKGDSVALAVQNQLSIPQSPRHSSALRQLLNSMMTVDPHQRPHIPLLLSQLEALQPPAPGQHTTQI
Method: as §1

[29] = target: RnDYRK1A (Rattus norvegicus, UniProt Q63470); assay: ADP-Glo kinase assay; format: biochemical, Rattus norvegicus (Rn)
Method: Kinase activities were determined using the ADP-Glo methodology (ADP-Glo Kinase Assay; Promega) according to the assay described by Nguyen et al.[32] except for MmCLK1. The later was assayed in the following buffer: 10 mM MgCl2, 1 mM EGTA, 1 mM DTT, 25 mM Tris-HCl pH 7.5, 50 µg/ml heparin, 0.15 mg/ml BSA, with 0.027 µg/µl of the following peptide: GRSRSRSRSRSR as substrate.

## COc1ccc2[nH]c3c(=O)[nH]c4ccc(O)cc4c3c2c1 [Compound 55, 2-Hydroxy-10-methoxy-5,7-dihydro-6H-indolo[2,3-c]quinolin-6-one]
[1]
  Inhibition of intracellular Haspin (H3T3ph signal): could inhibit intracellular Haspin
[2]
  inhibition at 1 µM: 86%
[3]
  inhibition at 1 µM: 24%
[4]
  inhibition at 1 µM: 98%
[5]
  inhibition at 1 µM: 13%
[6]
  inhibition at 1 µM: 23%
[7]
  inhibition at 1 µM: 98%
[8]
  inhibition at 1 µM: 82%
[9]
  inhibition at 1 µM: 25%
[10]
  inhibition at 1 µM: 18%
[11]
  inhibition at 1 µM: 100%
[12]
  inhibition at 1 µM: 98%
[13]
  inhibition at 1 µM: 59%
[14]
  inhibition at 1 µM: 8%
[15]
  inhibition at 1 µM: 40%
[16]
  inhibition at 1 µM: 94%
[17]
  inhibition at 1 µM: 4%
[18]
  inhibition at 1 µM: 70%
[19]
  inhibition at 1 µM: 2%
[20]
  inhibition at 1 µM: 45%
[21]
  inhibition at 1 µM: 90%
[22]
  inhibition at 1 µM: 7%
[23]
  inhibition at 1 µM: 81%
[24]
  inhibition at 1 µM: 80%
[25]
  inhibition at 1 µM: 25%
[26]
  inhibition at 1 µM: 58%
[27]
  inhibition at 1 µM: 116%
[28]
  inhibition at 1 µM: 51%
[29]; IC50 DYRK1A/IC50 Haspin
  Selectivity index DYRK/Haspin: 65
[29]; dose-response curve, each point in duplicate, read-out: Kinase inhibition (IC50) DYRK1A
  IC50: 130 nM
[29]; mean n = 2, % of maximum activity of DMSO control, read-out: % Residual activity at 1 μM DYRK1A
  remaining activity: 2%
